In paper PMC8528301 (PLoS ONE, 2021):
“And” between values parts separate entries of the source, which are not always exact repeats. Equal values may be shown once.

Assay: Dasatinib single oral gavage plasma pharmacokinetics (NLME modeling)
Type: in vivo, mouse
Parameters: DV (dasatinib plasma concentration): unit: ng/mL
Description: Dasatinib was dissolved in 80 mMol/L sodium citrate buffer pH 3.1 for a total dasatinib concentration of 1 mg/mL and a 10 mL/kg gavage volume. Mice were grouped by VD3 status and sex and studied at 8 and 10 weeks of age. […] Saphenous and submandibular bleeds of mice using a single-use Sarstedt Minivette POCT 50 μL K3 EDTA capillary device are humane methods for obtaining small volumes of blood over multiple time points, preferrable to retroorbital bleeds, and were approved for this study that required blood sampling at multiple time points (three) after dasatinib administration. Each mouse was sampled three times on two separate dasatinib dosing occasions. Blood was collected into the Minivette capillary device, dispensed into a microtube and vortexed to mix the anticoagulant. The tubes were then immediately centrifuged to plasma and stored on dry ice for the remainder of the study. At the end of the in vivo procedures, plasma samples were transferred from dry ice and placed at -80°C until analysis.
Total plasma dasatinib concentrations were assessed using a sensitive and specific liquid chromatography, tandem mass spectrometry (LC-MS/MS) assay. Dasatinib stock solutions were prepared in acetonitrile and used to spike matrix calibrators and quality controls. Protein precipitation was performed using a 1:4 ratio of plasma to 15 ng/mL erlotinib HCl (St. Jude Compound Management, S00004053, Inventory ID: SJCH0042996, Purity > 95%) in methanol as an internal standard. A 3μL aliquot of the extracted supernatant was injected onto a Shimadzu LC-20ADXR high performance liquid chromatography system via a LEAP CTC PAL autosampler. The LC separation was performed using a Phenomenex Kinetex 2.6 um EVO C18 (100A, 50 x 2.1 mm) maintained at 50°C with gradient elution at a flow rate of 0.5 mL/min. The binary mobile phase gradient began with a linear increase to 100% B in 4.0 minutes. The column was then rinsed for 2.0 minutes at 100% B and then equilibrated at the initial conditions for two minutes for a total run time of eight minutes.
Analyte and IS were detected with tandem mass spectrometry using a SCIEX API 5500 Q-TRAP in the positive ESI mode with monitoring of the following mass transitions: Dasatinib 488.20 -> 401.00, erlotinib HCl 394.20 -> 250.10.
The experimental bioanalytical runs were all found to be acceptable for the purpose of a singlicate non-GLP, preclinical PK assessment. A linear model (1/X^2 weighting) fit the calibrators across the 1.00 to 500 ng/mL range, with a correlation coefficient (R) of […]. The lower limit of quantification (LLOQ), defined as a peak area signal-to-noise ratio of 5 or greater verses a matric blank with IS, was 1.00 ng/mL.
§ To evaluate the plasma pharmacokinetics (PK) of dasatinib af t er two separate single oral gavage doses of solution, separated by a washout period, in normal C57BL/6 mice […]
vs 10wk) on the plasma PK of oral dasatinib us ing a nonlinear mixed effects (NLME) PK modeling […]
2. 1 In Vivo Pharmacokinetic (PK) Study
The total plasma PK of dasatinib in C57BL/6 mice (The Jackson Laboratory) was assessed after single oral gavages of 10 mg/kg of dasatinib free base equivalents. Dasatinib (St. Jude Compound […]
sodium citrate buffer pH 3.1 for a final dasatinib concentration of 1 mg/mL for a 10 mL/kg gavage volume.
Mice were grouped by Vitamin D dietary sufficiency status and sex, and studied at 8 and 10 weeks of age. Survival saphenous and facial vein bleeding of mice was conducted using IACUC-approved […]
was sampled 3 times on the 2 separate occasions of dasatinib dosing. […] The tubes were then immediately centrifuged to plasma, and stored on dry ice for […]

Structure (SMILES): Cc1nc(Nc2ncc(C(=O)Nc3c(C)cccc3Cl)s2)cc(N2CCN(CCO)CC2)n1 [dasatinib]
- calculated Cgut (10 mg/kg into a gastric volume of 300–400 μL): 1.5 mM
- influence of VD3 status, sex, or age on oral dasatinib PK (10 mg/kg oral gavage, 8 wk vs 10 wk): no influence
- Q pop (Base Model): 19.5 mL/min/kg
- V1 pop (apparent volume of central compartment) (Base Model): 12.7 L/kg
- V2 pop (Base Model): 11.1 L/kg
- omega_Cl (inter-individual variability) (Base Model): 0.294 %CV
- omega_V1 (inter-individual variability) (Base Model): 0.465 %CV
- Tk0 pop (Base Model, 10 mg/kg oral gavage, zero order absorption duration): 1.29 h
- Q pop (Final Model): 21 mL/min/kg
- V1 pop (Final Model): 12.2 L/kg
- V2 pop (Final Model): 11.2 L/kg
- omega_Cl (Final Model): 0.287 %CV
- omega_V1 (Final Model): 0.477 %CV
- Tk0 pop (Final Model (VD3 status and sex covariates on Cl)): 1.33 h
- DV (dasatinib plasma concentration) (GROUP:VD3 Def, SEX:F, OCC 1, time 0.5): 206.1 and 158.35
- DV (dasatinib plasma concentration) (GROUP:VD3 Def, SEX:F, OCC 1, time 1): 457.04 and 404.1
- DV (dasatinib plasma concentration) (GROUP:VD3 Def, SEX:F, OCC 1, time 2): > 500 and 323.65
- DV (dasatinib plasma concentration) (GROUP:VD3 Def, SEX:F, OCC 1, time 8): 33.172 and 43.592
- DV (dasatinib plasma concentration) (GROUP:VD3 Def, SEX:F, OCC 1, time 16): 2.7889 and 2.9067
- DV (dasatinib plasma concentration) (GROUP:VD3 Def, SEX:F, OCC 2, time 0.125): 29.279 and 44.718
- DV (dasatinib plasma concentration) (GROUP:VD3 Def, SEX:F, OCC 2, time 0.25): 240.93 and 155.4
- DV (dasatinib plasma concentration) (GROUP:VD3 Def, SEX:F, OCC 2, time 0.5): 128.51 and 161.37
- DV (dasatinib plasma concentration) (GROUP:VD3 Def, SEX:F, OCC 2, time 16): 6.2042 and 7.8308
- DV (dasatinib plasma concentration) (GROUP:VD3 Def, SEX:M, OCC 1, time 0.25): 143.39 and 275.48
- DV (dasatinib plasma concentration) (GROUP:VD3 Def, SEX:M, OCC 1, time 0.5): 240.61 and 267.78
- DV (dasatinib plasma concentration) (GROUP:VD3 Def, SEX:M, OCC 1, time 2): 760.24
- DV (dasatinib plasma concentration) (GROUP:VD3 Def, SEX:M, OCC 1, time 4): 99.618 and 81.306
- DV (dasatinib plasma concentration) (GROUP:VD3 Def, SEX:M, OCC 1, time 8): 11.773 and 10.821
- DV (dasatinib plasma concentration) (GROUP:VD3 Def, SEX:M, OCC 1, time 24): 7.0494 and 5.7321
- DV (dasatinib plasma concentration) (GROUP:VD3 Def, SEX:M, OCC 2, time 0.5): 117.58 and 209.13
- DV (dasatinib plasma concentration) (GROUP:VD3 Def, SEX:M, OCC 2, time 2): 376.78 and > 500
- DV (dasatinib plasma concentration) (GROUP:VD3 Def, SEX:M, OCC 2, time 4): 62.561 and 70.903
- DV (dasatinib plasma concentration) (GROUP:VD3 Def, SEX:M, OCC 2, time 8): 13.735 and 13.061
- DV (dasatinib plasma concentration) (GROUP:VD3 Def, SEX:M, OCC 2, time 16): 8.5466 and 7.4123
- DV (dasatinib plasma concentration) (GROUP:VD3 Suf, SEX:F, OCC 1, time 0.25): 244.67 and 197.71
- DV (dasatinib plasma concentration) (GROUP:VD3 Suf, SEX:F, OCC 1, time 0.5): 144.41 and 217.29
- DV (dasatinib plasma concentration) (GROUP:VD3 Suf, SEX:F, OCC 1, time 2): 466.97 and > 500
- DV (dasatinib plasma concentration) (GROUP:VD3 Suf, SEX:F, OCC 1, time 4): 105.56 and 62.725
- DV (dasatinib plasma concentration) (GROUP:VD3 Suf, SEX:F, OCC 1, time 8): 11.198 and 14.683
- DV (dasatinib plasma concentration) (GROUP:VD3 Suf, SEX:F, OCC 1, time 16): 1.9898 and 3.161
- DV (dasatinib plasma concentration) (GROUP:VD3 Suf, SEX:F, OCC 2, time 0.5): 124.69 and 151.83
- DV (dasatinib plasma concentration) (GROUP:VD3 Suf, SEX:F, OCC 2, time 2): 295.49 and 395.48
- DV (dasatinib plasma concentration) (GROUP:VD3 Suf, SEX:F, OCC 2, time 4): 72.682 and 42.565
- DV (dasatinib plasma concentration) (GROUP:VD3 Suf, SEX:F, OCC 2, time 16): 9.1881 and 6.2417
- DV (dasatinib plasma concentration) (GROUP:VD3 Suf, SEX:M, OCC 1, time 0.125): 35.897 and 45.322
- DV (dasatinib plasma concentration) (GROUP:VD3 Suf, SEX:M, OCC 1, time 0.25): 87.715 and 117.65
- DV (dasatinib plasma concentration) (GROUP:VD3 Suf, SEX:M, OCC 1, time 2): > 500 and 483.94
- DV (dasatinib plasma concentration) (GROUP:VD3 Suf, SEX:M, OCC 1, time 4): 103.68 and 89.88
